According to US8192935B2, “Methods for assessing cisplatin resistance, disease progression, and treatment efficacy in ovarian cancer as related to MetAP2 expression” (The Penn State Research Foundation, priority 2003, dated 2012):
Where two headings read alike, the source gives them in different places.

What was measured:
human colon cancer = settings: Tanaka et al., 1995; cited from earlier work
MetAP-2 [1] = target: MetAP-2 (Homo sapiens, UniProt P50579); settings: Griffith et al.; cited from earlier work
OVCA 429 cells = settings: for 429: increased sensitivity to cis-platin: OVCA 429 cells with specific siRNA
MetAP-2 [2] = settings: several different cell types; Wang et al., 2000; cited from earlier work
MetAP-2 messenger RNA = test: siRNA knockdown, quantitative real-time PCR; settings: OVCA 429 (FIG. 44)
Description: The reaction mixture was then incubated at 42° C. for 60 minutes. cDNA dilutions from 1:4 to 1:256 were prepared. […] Green PCR Master Mix (Qiagen), 0.3 μM of forward primer, 0.3 μM of reverse primer, and RNase free water were added to a final volume of 45 μl.
Sequence detection was determined using the ABI Prism 7700 (Applied Biosystems, Inc., Foster City, Calif.) sequence detection system or the MJ Research (Waltham, Mass.) Opticon II system as follows: PCR initial activation step was carried out for 15 minutes at 95° C.; samples were denatured for 15 seconds at 94° C., annealed for 30 seconds at 53° C. (55° C. when the Opticon II system was used), and extended for 30 seconds at 72° C. (data was acquired during this step); the PCR reaction was repeated for 50 cycles. A melting curve analysis was prepared by adding on the following steps: 15 seconds at 95° C., 20 seconds at 60° C., and 20 seconds at 95° C.
The siRNA experiments described herein were conducted using the siPORT Lipid protocol (Ambion). […]
Cells were transfected with the siRNA constructs following instruction from the supplier (Ambion). […] The OD260 readings of siRNA were performed in duplicate at a 1:100 dilution. The readings were averaged, then multiplied by the dilution factor and then by multiplied by 40 (the OD260of 1 is equal to 40 μg/ml of RNA) to get the final concentration of siRNA in μg/ml. […]

OVCAR-3 cells = test: MTT assay, cis-platin sensitivity with siRNA; format: cell-based, human; settings: OVCAR-3 cells with specific siRNA
NM23-D (BC004880) = test: siRNA-mediated knockdown of gene expression; format: cell-based, human; settings: OVCA 429 cells
RNPS1 (AF015608) = test: siRNA-mediated knockdown of gene expression; format: cell-based, human; settings: ovarian cancer cell lines
S100A11 message = test: siRNA knockdown of gene expression; format: cell-based, human; settings: OVCA 429 (FIG. 57)
SAPK/Erk1 (L36870) = test: siRNA-mediated knockdown of gene expression; format: cell-based, human; settings: ovarian cancer cell lines
[3] = system: SRB1/CLA1/CD3611 (BCO22087); test: siRNA-mediated knockdown of gene expression; format: cell-based, human; settings: ovarian cancer cell lines
Vinexin 13 (AF037261) = test: siRNA-mediated knockdown of gene expression; format: cell-based, human; settings: OVCA 429 cells
WDR1 (AB010427) = test: siRNA-mediated knockdown of gene expression; format: cell-based, human; settings: OVCA 429 cells
eEF1ε (BC005291) = test: siRNA-mediated knockdown of gene expression; format: cell-based, human; settings: ovarian cancer cell lines
e-IF2Bε (BC013590) = test: siRNA-mediated knockdown of gene expression; format: cell-based, human; settings: ovarian cancer cell lines

Sequence of MetAP-2 (Homo sapiens, UniProt P50579) (P50579 whole entry, species assumed): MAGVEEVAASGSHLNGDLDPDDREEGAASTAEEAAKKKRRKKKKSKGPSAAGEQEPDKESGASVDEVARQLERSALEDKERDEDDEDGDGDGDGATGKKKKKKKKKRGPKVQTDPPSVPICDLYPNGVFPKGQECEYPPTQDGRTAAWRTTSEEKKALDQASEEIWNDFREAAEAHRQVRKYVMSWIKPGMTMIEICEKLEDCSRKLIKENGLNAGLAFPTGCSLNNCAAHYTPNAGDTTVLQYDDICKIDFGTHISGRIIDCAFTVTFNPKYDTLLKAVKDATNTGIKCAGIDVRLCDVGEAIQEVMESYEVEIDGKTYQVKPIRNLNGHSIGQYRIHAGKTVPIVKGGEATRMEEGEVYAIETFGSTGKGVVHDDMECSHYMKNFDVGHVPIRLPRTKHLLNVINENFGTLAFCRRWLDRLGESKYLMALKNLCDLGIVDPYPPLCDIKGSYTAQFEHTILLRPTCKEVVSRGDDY

CO[C@@H]1[C@H](OC(=O)NC(=O)CCl)CC[C@]2(CO2)[C@H]1[C@@]1(C)O[C@@H]1CC=C(C)C [TNP-470]
hepatic metastasis of human colon cancer (human colon cancer): can be prevented
inhibition of the methionine aminopeptidase activity of MetAP-2 (MetAP-2 [1]): covalently binds to and inhibits

CO[C@@H]1[C@H](OC(=O)/C=C/C=C/C=C/C=C/C(=O)O)CC[C@]2(CO2)[C@H]1[C@@]1(C)O[C@@H]1CC=C(C)C [fumagillin]
effect on the action of cis-platin (OVCA 429 cells; OVCA 429, 0.1 μg/ml fumagillin, 4 hours): enhancement of the effect of cis-platin
effect on the action of cis-platin (OVCA 429 cells; OVCA 429, 0.1 μg/ml fumagillin, 8 hours): enhancement of the effect of cis-platin
effect on the action of cis-platin (OVCA 429 cells; OVCA 429, 0.1 μg/ml fumagillin, regardless of the length of incubation time (FIGS. 41 and 42)): enhancement of the effect of cis-platin
effect on the action of cis-platin (OVCA 429 cells; OVCA 429, 10 μg/ml fumagillin, regardless of the length of incubation time (FIGS. 41 and 42)): opposite effect
cell survival with fumagillin alone (OVCA 429 cells; OVCA 429, very high concentrations of fumagillin, 4 hours (FIG. 40)): up to 80%
expression of MetAP-2 after treatment (MetAP-2 [2]): increased expression of MetAP-2
inhibition of the methionine aminopeptidase activity of MetAP-2 (MetAP-2 [1]): covalently binds to and inhibits

MetAP-2 siRNA #2: siRNA to MetAP-2; target sequence AAGCA CAT CGA CAA GTT AGA A (guide AAGCACATCGACAAGTTAGAA; target site or template, no part of the molecule; listed as DNA, chemistry not given here; listed as Homo Sapiens)
levels of MetAP-2 expression (MetAP-2 messenger RNA): did not result in a reduction

MetAP-2 siRNA #3: siRNA to MetAP-2; target sequence AAACA GTG CCG ATT GTG AAA G (guide AAACAGTGCCGATTGTGAAAG; target site or template, no part of the molecule; listed as DNA, chemistry not given here; listed as Homo Sapiens)
levels of MetAP-2 expression (MetAP-2 messenger RNA): did not result in a reduction

NM23D siRNA #3: siRNA to NM23-D; target sequence AATGTCATCCACGCCAGCGAC (guide AATGTCATCCACGCCAGCGAC; target site or template, no part of the molecule; listed as DNA, chemistry not given here; listed as Homo Sapiens)
OVCAR-3: increased sensitivity to cis-platin (OVCAR-3 cells): yes
429: increased sensitivity to cis-platin (OVCA 429 cells): yes
reduction of NM23-D mRNA levels compared to control (NM23-D (BC004880)): approximately 50%

RNPS1 siRNA #1: siRNA to RNPS1; target sequence AATATTCATACGGCATGGACT (guide SDNAATATTCATACGGCATGGACT; target site or template, no part of the molecule; listed as DNA, chemistry not given here; listed as Homo Sapiens)
429: increased sensitivity to cis-platin (OVCA 429 cells): yes
reduction in the level of RNPS1 mRNA (RNPS1 (AF015608)): 35%

S100A11 siRNA #1: siRNA to S100A11; AA AGG ATG GTT ATA ACT ACA C (guide AAAGGATGGTTATAACTACAC; target site or template, no part of the molecule; listed as DNA, chemistry not given here; listed as Homo Sapiens)
knockdown of S100A11 gene expression levels (S100A11 message): 50%

S100A11 siRNA #2: siRNA to S100A11; AA GAA ACT GGA CAC CAA CAG T (guide AAGAAACTGGACACCAACAGT; target site or template, no part of the molecule; listed as DNA, chemistry not given here; listed as Homo Sapiens)
knockdown of S100A11 gene expression levels (S100A11 message): 25%

SAPK/Erk1 siRNA #2: siRNA to SAPK/Erk1; target sequence AAGCGCATCACGACAAGGATA (guide AAGCGCATCACGACAAGGATA; target site or template, no part of the molecule; listed as DNA, chemistry not given here; listed as Homo Sapiens)
OVCAR-3: increased sensitivity to cis-platin (OVCAR-3 cells): yes
429: increased sensitivity to cis-platin (OVCA 429 cells): yes
reduction in the level of SAPK mRNA (SAPK/Erk1 (L36870)): 60%

SRB1 siRNA #1: siRNA to SRB1; target sequence AAGCAGCAGGTCCTTAAGAAC (guide AAGCAGCAGGTCCTTAAGAAC; target site or template, no part of the molecule; listed as DNA, chemistry not given here; listed as Homo Sapiens)
OVCAR-3: increased sensitivity to cis-platin (OVCAR-3 cells): yes
429: increased sensitivity to cis-platin (OVCA 429 cells): yes
reduction in the level of SRB1 mRNA [3]: 60%

SRB1 siRNA #3: siRNA to SRB1; target sequence AATTCAGAACGTCAGCACCTG (guide AATTCAGAACGTCAGCACCTG; target site or template, no part of the molecule; listed as DNA, chemistry not given here; listed as Homo Sapiens)
reduction in the level of SRB1 mRNA [3]: successful in reducing the expression of SRB1

Vinexin β siRNA #2: siRNA to Vinexin (AF037261); target sequence AAGAGTTACCTAGAAGCACCT (guide AAGAGTTACCTAGAAGCACCT; target site or template, no part of the molecule; listed as DNA, chemistry not given here; listed as Homo Sapiens)
OVCAR-3: increased sensitivity to cis-platin (OVCAR-3 cells): yes
reduction of Vinexin mRNA levels compared to control (Vinexin 13 (AF037261)): approximately 50%
429: increased sensitivity to cis-platin (OVCA 429 cells): no

WDR1 siRNA #1: siRNA to WDR1; target sequence AATGGAAAGTGCGTCATCCTA (guide AATGGAAAGTGCGTCATCCTA; target site or template, no part of the molecule; listed as DNA, chemistry not given here; listed as Homo Sapiens)
OVCAR-3: increased sensitivity to cis-platin (OVCAR-3 cells): yes
429: increased sensitivity to cis-platin (OVCA 429 cells): no
reduction of WDR1 mRNA levels compared to control (WDR1 (AB010427)): approximately 85%

WDR1 siRNA #2: siRNA to WDR1; target sequence AAGTTCACAATTGGCGACCAC (guide AAGTTCACAATTGGCGACCAC; target site or template, no part of the molecule; listed as DNA, chemistry not given here; listed as Homo Sapiens)
reduction of WDR1 mRNA levels compared to control (WDR1 (AB010427)): approximately 75%

WDR1 siRNA #3: siRNA to WDR1; target sequence AAGTGCTTCAGCATCGACAAC (guide AAGTGCTTCAGCATCGACAAC; target site or template, no part of the molecule; listed as DNA, chemistry not given here; listed as Homo Sapiens)
reduction of WDR1 mRNA levels compared to control (WDR1 (AB010427)): approximately 70%

eEF1ε siRNA #1: siRNA to eEF1ε; target sequence AACAGGATTGACTACTATAGC (guide AACAGGATTGACTACTATAGC; target site or template, no part of the molecule; listed as DNA, chemistry not given here; listed as Homo Sapiens)
reduction in the level of eEF1ε mRNA (eEF1ε (BC005291)): 65%

eEF1ε siRNA #2: siRNA to eEF1ε; target sequence AATACAGGGTCACTCAAGTAG (guide AATACAGGGTCACTCAAGTAG; target site or template, no part of the molecule; listed as DNA, chemistry not given here; listed as Homo Sapiens)
reduction in the level of eEF1ε mRNA (eEF1ε (BC005291)): successful in reducing the expression of eEF1ε

eIF2Bε siRNA #1: siRNA to e-IF2Bε; target sequence AATGTGGTTCGAATAATTACA (guide AATGTGGTTCGAATAATTACA; target site or template, no part of the molecule; listed as DNA, chemistry not given here; listed as Homo Sapiens)
OVCAR-3: increased sensitivity to cis-platin (OVCAR-3 cells): yes
reduction in the level of e-IF2Bε mRNA (e-IF2Bε (BC013590)): 57%
429: increased sensitivity to cis-platin (OVCA 429 cells): yes

eIF2Bε siRNA #2: siRNA to e-IF2Bε; target sequence AAACTCGAGATGACTTTGTGC (guide AAACTCGAGATGACTTTGTGC; target site or template, no part of the molecule; listed as DNA, chemistry not given here; listed as Homo Sapiens)
reduction in the level of e-IF2Bε mRNA (e-IF2Bε (BC013590)): 54%

eIF2Bε siRNA #3: siRNA to e-IF2Bε; target sequence AATCAACAGCTGCAGAGGTTC (guide AATCAACAGCTGCAGAGGTTC; target site or template, no part of the molecule; listed as DNA, chemistry not given here; listed as Homo Sapiens)
reduction in the level of e-IF2Bε mRNA (e-IF2Bε (BC013590)): 43%
